Patent publication US5023273A, “6-oxoprostaglandin E derivatives, process for their production and their pharmaceutical use” (Schering Aktiengesellschaft, priority 1987, dated 1991)
pIC50: −log10 of the molar value.

Legend:
Thrombocyte [1] = assay: Thrombocyte aggregation inhibition; assay type: cell-based
Protocol: (§1) The pharmacological comparison tests, which were conducted with the compounds from examples 1 and 4 in comparison with 6-oxo-PGE1, are summarized in the following table.

Thrombocyte [2] = assay: Thrombocyte shape change; assay type: cell-based
Protocol: as §1

[3] = tested on: Stomach (rats, trauma with ethanol); assay: Cytoprotection, stomach (rats, trauma with ethanol); assay type: in vivo; details: 10 micrograms/kg
Protocol: as §1

SMILES	pIC50 (Thrombocyte [1])	pIC50 (Thrombocyte [2])	Cytoprotection, stomach: inhibition [3] [%]
CCC#CC[C@H](C)[C@H](O)C#C[C@H]1[C@H](O)CC(=O)[C@@H]1CC(=O)CCCCC(=O)O [Example 4, (11R,15S,16S)-6,9-di-oxo-11,15-dihydroxy-16,20-dimethyl-13,14,18,18,19,19-hexadehydroxy-13-prostenoic acid]	10.05	9.00	
CCCCC[C@H](O)/C=C/[C@H]1[C@H](O)CC(=O)[C@@H]1CC(=O)CCCCC(=O)O [Example 6oxoPGE1, reference compound]	8.15		52
CC#CCC(C)[C@H](O)/C=C/[C@H]1[C@H](O)CC(=O)[C@@H]1CC(=O)CCCCC(=O)O (mixture of isomers) [Example 1, (13E)-(11R,15S,16RS)-6,9-Di-oxo-11,15-dihydroxy-16-methyl-18,18,19,19-tetradehydro-13-prostenoic acid]	8.77	8.00	
